Reference: ChEMBL document CHEMBL1201862, “PubChem BioAssay data set” (2004)
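Assay format: 96-well plates, 48-hour exposure. GI50 is the concentration that inhibits growth by half.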 The source made the active and inactive calls. No stated cut-off is given here; in the data, active = GI50 up to about 1.1 µM and inactive = higher.

How the values were obtained:
Experiment in all cases: growth of human tumour cells (NCI), 48 h
[1] = tested on: A549
[2] = tested on: EKVX
[3] = tested on: HCC 2998
[4] = tested on: HCT-116
[5] = tested on: HOP-62
[6] = tested on: IGROV-1
[7] = tested on: KM12
[8] = tested on: LOX IMVI
[9] = tested on: NCI-H226
[10] = tested on: NCI-H460
[11] = tested on: OVCAR-3
[12] = tested on: OVCAR-8
[13] = tested on: RPMI-8226
[14] = tested on: SF-295
[15] = tested on: SK-MEL-5
[16] = tested on: SNB-19
[17] = tested on: SNB-75
[18] = tested on: SR
[19] = tested on: UO-31

| Structure (SMILES) | GI50 [1] | GI50 [2] | GI50 [3] | GI50 [4] | GI50 [5] | GI50 [6] | GI50 [7] | GI50 [8] | GI50 [9] | GI50 [10] | GI50 [11] | GI50 [12] | GI50 [13] | GI50 [14] | GI50 [15] | GI50 [16] | GI50 [17] | GI50 [18] | GI50 [19] |
| --- | --- | --- | --- | --- | --- | --- | --- | --- | --- | --- | --- | --- | --- | --- | --- | --- | --- | --- | --- |
| N#Cc1ccc(-n2c3ccccc3c3ccc4c(c32)C(=O)C=CC4=O)cc1 | 16.9 µM (inactive) | 1.91 µM (inactive) | 8.43 µM (inactive) | 2.42 µM (inactive) | 15.3 µM (inactive) | 5.25 µM (inactive) | 10.2 µM (inactive) | 2.99 µM (inactive) | 24.3 µM (inactive) | 21.6 µM (inactive) | 3.27 µM (inactive) | 3.66 µM (inactive) | 3.72 µM (inactive) | 14 µM (inactive) | 5.02 µM (inactive) | 10.1 µM (inactive) | 18.2 µM (inactive) | 1.46 µM (inactive) | 1.45 µM (inactive) |
| CCOC1OC(CO[Si](C)(C)C(C)(C)C)C(O)CC1n1ccc(=O)[nH]c1=O (configuration not stated) | 51.5 µM (inactive) | > 100 µM (inactive) | > 100 µM (inactive) | 17.1 µM (inactive) |  | 21.5 µM (inactive) | 88.7 µM (inactive) | 17.4 µM (inactive) | > 100 µM (inactive) | 81.3 µM (inactive) | 43.8 µM (inactive) | 33.7 µM (inactive) | 49.8 µM (inactive) | > 100 µM (inactive) | 59.2 µM (inactive) | > 100 µM (inactive) | > 100 µM (inactive) | 42.6 µM (inactive) | > 100 µM (inactive) |
| CC(=O)OC12CC(C(F)(F)F)(C(F)(F)F)OC1(OC(C)=O)CC(C(F)(F)F)(C(F)(F)F)O2 (configuration not stated) | 1.26 µM (inactive) |  | 9.08 µM (inactive) | 3.66 µM (inactive) | 25.4 µM (inactive) | 1.41 µM (inactive) | 2.33 µM (inactive) | 1.73 µM (inactive) | 6.17 µM (inactive) | 4.05 µM (inactive) | 2.02 µM (inactive) | 2.71 µM (inactive) | 0.7 µM (active) | 6.76 µM (inactive) | 0.385 µM (active) | 3.15 µM (inactive) | 11.1 µM (inactive) | 2.55 µM (inactive) | 1.36 µM (inactive) |
| CCOC(=O)c1c(SCCN2CCOCC2)n(-c2ccccc2)c(=S)n(-c2ccccc2)c1=O | > 100 µM (inactive) |  | > 100 µM (inactive) |  |  | 42.5 µM (inactive) | > 100 µM (inactive) | 18.5 µM (inactive) | 38.5 µM (inactive) | > 100 µM (inactive) | 49.2 µM (inactive) | > 100 µM (inactive) | 33.7 µM (inactive) | 25.6 µM (inactive) | 27.7 µM (inactive) | > 100 µM (inactive) | 76.2 µM (inactive) | 18.4 µM (inactive) | > 100 µM (inactive) |
| O=C(O)CC(NC(=O)C(F)(F)F)C(=O)NC1Cc2ccccc2OC1=O (configuration not stated) | > 100 µM (inactive) | > 100 µM (inactive) | > 100 µM (inactive) |  | > 100 µM (inactive) | > 100 µM (inactive) | > 100 µM (inactive) |  | > 100 µM (inactive) | > 100 µM (inactive) | > 100 µM (inactive) | > 100 µM (inactive) | > 100 µM (inactive) | > 100 µM (inactive) | > 100 µM (inactive) | > 100 µM (inactive) | > 100 µM (inactive) | > 100 µM (inactive) | > 100 µM (inactive) |
| COC(=O)C1=C(O)C(C(=O)OC)[C@]2(O)[C@H](C(=O)OC)[C@H]1C[C@@H](c1ccc(OC)cc1)[C@H]2C(=O)OC (some centres not stated) | 20.5 µM (inactive) | 26.3 µM (inactive) | 17.8 µM (inactive) | 16.3 µM (inactive) | 29.9 µM (inactive) | 34.6 µM (inactive) | 19.5 µM (inactive) | 24.4 µM (inactive) | 30.3 µM (inactive) | 17.7 µM (inactive) |  | 30.7 µM (inactive) | 12.4 µM (inactive) | 44.6 µM (inactive) | 13.7 µM (inactive) | 29.4 µM (inactive) | 27.9 µM (inactive) | 16.1 µM (inactive) | 11.3 µM (inactive) |
| N#Cc1c(N2CCN(c3ccc([N+](=O)[O-])cc3)CC2)[n+]([O-])c2ccccc2[n+]1[O-] | 99.5 µM (inactive) | > 100 µM (inactive) | > 100 µM (inactive) | > 100 µM (inactive) | > 100 µM (inactive) | 17.4 µM (inactive) | > 100 µM (inactive) | 32.4 µM (inactive) |  | > 100 µM (inactive) | > 100 µM (inactive) | 20.5 µM (inactive) | 6.5 µM (inactive) | > 100 µM (inactive) | > 100 µM (inactive) | > 100 µM (inactive) | > 100 µM (inactive) | 1.28 µM (inactive) | 0.0155 µM (active) |
| C[C@]12C[C@H](c3ccccc3)Nc3ccccc3N1C(c1ccccc1)=NO2 | > 100 µM (inactive) | 21 µM (inactive) | > 100 µM (inactive) | 60.8 µM (inactive) | > 100 µM (inactive) | > 100 µM (inactive) | 61 µM (inactive) |  | > 100 µM (inactive) | 49.7 µM (inactive) | 28.5 µM (inactive) | 85.7 µM (inactive) | 47.2 µM (inactive) | 22.5 µM (inactive) | 30.1 µM (inactive) | > 100 µM (inactive) | 51.3 µM (inactive) | 3.39 µM (inactive) | 41.4 µM (inactive) |
| Clc1ccc(C2=NN=C3C(c4ccccc4)=Nc4ccccc4N3C2)cc1 | 13.5 µM (inactive) | 4.97 µM (inactive) | 17.9 µM (inactive) | 4.17 µM (inactive) | 10.8 µM (inactive) | 7.87 µM (inactive) | 6.82 µM (inactive) | 3.76 µM (inactive) | 6.52 µM (inactive) | 1.38 µM (inactive) | 2.02 µM (inactive) | 4.05 µM (inactive) | 2.63 µM (inactive) | 11.1 µM (inactive) | 3.27 µM (inactive) | 11.7 µM (inactive) |  | 1.08 µM (active) | 3.72 µM (inactive) |
| Nc1n[n+]([O-])c2cnccc2[n+]1[O-] | 33.9 µM (inactive) |  | > 100 µM (inactive) | 32.4 µM (inactive) | > 100 µM (inactive) | 37.2 µM (inactive) | 58.7 µM (inactive) | 52.2 µM (inactive) | > 100 µM (inactive) | 34.8 µM (inactive) | 35.4 µM (inactive) | 31.3 µM (inactive) | > 100 µM (inactive) | 45.6 µM (inactive) | 16.4 µM (inactive) | > 100 µM (inactive) | > 100 µM (inactive) | 54.7 µM (inactive) | > 100 µM (inactive) |
| CC(C)(C)N(Cc1ccc2c(c1)OCO2)C(=O)/C=C\Sc1ccccc1 | 47 µM (inactive) | 60.8 µM (inactive) | 97.1 µM (inactive) | 23.9 µM (inactive) | > 100 µM (inactive) | 83.2 µM (inactive) | 81.8 µM (inactive) | 77.8 µM (inactive) | 68.2 µM (inactive) |  | > 100 µM (inactive) | > 100 µM (inactive) | 30.3 µM (inactive) | > 100 µM (inactive) | 53.2 µM (inactive) | > 100 µM (inactive) |  | 4.44 µM (inactive) | 43 µM (inactive) |
| CCOC(=O)C1(C(=O)OCC)C[C@]23OCCC(=O)[C@H]2[C@H]2C(=O)OC(C)(C)O[C@]23C1 | > 100 µM (inactive) | > 100 µM (inactive) | > 100 µM (inactive) | > 100 µM (inactive) | > 100 µM (inactive) | > 100 µM (inactive) | > 100 µM (inactive) | > 100 µM (inactive) |  | > 100 µM (inactive) | > 100 µM (inactive) | > 100 µM (inactive) | > 100 µM (inactive) | > 100 µM (inactive) | > 100 µM (inactive) | > 100 µM (inactive) | > 100 µM (inactive) | > 100 µM (inactive) | > 100 µM (inactive) |
| CC1CC2OC(=O)C(C)C2CC2(C)C(OC3OC(CO)C(O)C(O)C3O)OCCC12 (configuration not stated) | > 100 µM (inactive) | > 100 µM (inactive) | > 100 µM (inactive) | > 100 µM (inactive) | > 100 µM (inactive) | > 100 µM (inactive) | > 100 µM (inactive) | > 100 µM (inactive) | > 100 µM (inactive) | > 100 µM (inactive) | > 100 µM (inactive) | > 100 µM (inactive) | > 100 µM (inactive) | > 100 µM (inactive) | > 100 µM (inactive) | > 100 µM (inactive) | > 100 µM (inactive) | > 100 µM (inactive) |  |
| CC(=O)OC1CCn2c1nc1c2C(=O)C=C(N2CC2)C1=O (configuration not stated) | 1.41 µM (inactive) | 1.02 µM (active) | 1.45 µM (inactive) | 0.153 µM (active) | 2.11 µM (inactive) | 0.449 µM (active) |  | 0.0719 µM (active) | 1.86 µM (inactive) | 1.15 µM (inactive) | 0.215 µM (active) | 0.402 µM (active) | 0.251 µM (active) | 1.81 µM (inactive) | 0.142 µM (active) | 2.88 µM (inactive) | 0.174 µM (active) | 0.0953 µM (active) | 0.103 µM (active) |
| COC12OC3(C4OC41)C(C(=O)O[C@H]3CO[Si](C)(C)C(C)(C)C)C2S(=O)(=O)c1ccccc1 (some centres not stated) | > 4.65 µM (inactive) | > 4.65 µM (inactive) | > 100 µM (inactive) | 4.16 µM (inactive) | > 4.65 µM (inactive) |  |  |  | > 100 µM (inactive) | > 62.1 µM (inactive) | > 100 µM (inactive) | 4.65 µM (inactive) | 1.67 µM (inactive) | > 25.5 µM (inactive) |  |  |  | 2.63 µM (inactive) | > 4.65 µM (inactive) |
